Laboratory results: publication PMC11149917, “Translational and Therapeutic Evaluation of RAS-GTP Inhibition by RMC-6236 in RAS-Driven Cancers” (Cancer Discovery, 2024)
Read-outs that look alike come from different tables or passages of the source.

Test: Mouse blood and tissue PK (LC/MS-MS)
Format: in vivo
Conditions: mouse; for concentration at 2 h / concentration at 24 h / concentration at 4 h / concentration at 8 h / concentration at 48 h / Kp: oral; for concentration at 2 h / concentration at 24 h / concentration at 4 h / concentration at 8 h / concentration at 48 h: read-out: RMC-6236 (nM) Tumor; for Kp: tumor relative to whole blood, read-out: Tumor/Blood AUC Ratio; for AUC(0-t): read-out: Blood AUClast
Procedure: For single-dose PKPD study, mice were randomized and assigned into groups (n = 3/dose/time point). […] Blood and tissues, including the tumor, brain, colon, ear skin, and muscle, were harvested at indicated time points. […] The whole blood, tumor, brain, colon, and ear skin concentrations of RMC-6236 were determined using liquid chromatography–tandem mass spectrometry (LC/MS-MS) methods. […] After thorough mixing and centrifugation, the supernatant was diluted with water or directly analyzed on a Sciex 5500 or Sciex 6500+ triple quadrupole mass spectrometer equipped with an ACQUITY or Shimadzu UPLC system. […] Bioanalysis on blood and tissue samples from xenograft models was run at Pharmaron and Wuxi AppTec. Concentrations reported as below the quantification limit were treated as zero for PK analysis. PK parameters were calculated by noncompartmental analysis of the concentration–time profiles using Phoenix WinNonLin (version 8.3 Certara). Apparent terminal elimination half-life (t1/2) values were calculated as ln(2)/k, where k represents the terminal elimination rate constant. Area under the concentration–time curve (AUC) values were estimated using a linear trapezoidal method. AUClast values were calculated from the dosing time to the last quantifiable concentration. Maximum concentration (Cmax) was recorded as observed.

[1] = BALB/c nude, ear skin, 3 mg/kg, sheet Ear Skin, model Capan-2, study Capan-2 #3_PHA 2023, 3 mg/kg
[2] = BALB/c nude, ear skin, 10 mg/kg, sheet Ear Skin, model Capan-2, study Capan-2 #3_PHA 2023, 10 mg/kg
[3] = BALB/c nude, ear skin, 25 mg/kg, sheet Ear Skin, model Capan-2, study Capan-2 #3_PHA 2023, 25 mg/kg
[4] = BALB/c nude, ear skin, 50 mg/kg, sheet Ear Skin, model Capan-2, study Capan-2 #3_PHA 2023, 50 mg/kg
[5] = BALB/c nude, ear skin, 100 mg/kg, sheet Ear Skin, model Capan-2, study Capan-2 #3_PHA 2023, 100 mg/kg
[6] = BALB/c nude, tumor, 0.3 mg/kg, Capan-2, study Capan-2 #3_PHA 2020, 0.3 mg/kg
[7] = BALB/c nude, tumor, 3 mg/kg, Capan-2, study Capan-2 #3_PHA 2020, 3 mg/kg
[8] = BALB/c nude, tumor, 3 mg/kg, Capan-2, study Capan-2 #3_PHA 2023, 3 mg/kg
[9] = BALB/c nude, tumor, 10 mg/kg, Capan-2, study Capan-2 #3_PHA 2020, 10 mg/kg
[10] = BALB/c nude, tumor, 10 mg/kg, Capan-2, study Capan-2 #3_PHA 2023, 10 mg/kg
[11] = BALB/c nude, tumor, 10 mg/kg, sheet colon, Capan-2, Capan-2 #3_PHA 2023, 10 mg/kg
[12] = BALB/c nude, tumor, 25 mg/kg, Capan-2, study Capan-2 #3_PHA 2020, 25 mg/kg
[13] = BALB/c nude, tumor, 25 mg/kg, Capan-2, study Capan-2 #3_PHA 2023, 25 mg/kg
[14] = BALB/c nude, tumor, 25 mg/kg, sheet colon, Capan-2, Capan-2 #3_PHA 2023, 25 mg/kg
[15] = BALB/c nude, tumor, 40 mg/kg, Capan-2, study Capan-2 #3_PHA 2020, 40 mg/kg
[16] = BALB/c nude, tumor, 50 mg/kg, Capan-2, study Capan-2 #3_PHA 2023, 50 mg/kg
[17] = BALB/c nude, tumor, 50 mg/kg, sheet colon, Capan-2, Capan-2 #3_PHA 2023, 50 mg/kg
[18] = BALB/c nude, tumor, 100 mg/kg, Capan-2, study Capan-2 #3_PHA 2023, 100 mg/kg
[19] = BALB/c nude, tumor, 100 mg/kg, sheet colon, Capan-2, Capan-2 #3_PHA 2023, 100 mg/kg
[20] = BALB/c nude, whole blood, po, 3 mg/kg, Capan-2 (3 mg/kg), single dose
[21] = BALB/c nude, whole blood, po, 10 mg/kg, Capan-2 (10 mg/kg), single dose
[22] = BALB/c nude, whole blood, po, 25 mg/kg, Capan-2 (25 mg/kg), single dose
[23] = Balb/c nude, whole blood, po, 25 mg/kg, LU99-luc IC #2 (25 mg/kg), single dose

CCn1c(-c2cc(N3CCN(C)CC3)cnc2[C@H](C)OC)c2c3cc(ccc31)-c1csc(n1)C[C@H](NC(=O)[C@H]1C[C@@H]1C)C(=O)N1CCC[C@H](N1)C(=O)OCC(C)(C)C2 [RMC-6236]
concentration at 2 h (BALB/c nude, colon, 3 mg/kg, sheet colon, Capan-2, Capan-2 #3_PHA 2023, 3 mg/kg): 1370 nM | concentration at 2 h (BALB/c nude, colon, 25 mg/kg, sheet colon, Capan-2, Capan-2 #3_PHA 2023, 25 mg/kg): 5810 nM | concentration at 24 h (BALB/c nude, colon, 50 mg/kg, sheet colon, Capan-2, Capan-2 #3_PHA 2023, 50 mg/kg): 147 nM | concentration at 24 h (BALB/c nude, colon, 100 mg/kg, sheet colon, Capan-2, Capan-2 #3_PHA 2023, 100 mg/kg): 531 nM | concentration at 2 h [1]: 175 nM | concentration at 4 h [1]: 255 nM | concentration at 8 h [1]: 195 nM | concentration at 24 h [1]: 48.3 nM | concentration at 2 h [2]: 469 nM | concentration at 4 h [2]: 883 nM | concentration at 8 h [2]: 1080 nM | concentration at 24 h [2]: 219 nM | concentration at 48 h [2]: 41.6 nM | concentration at 2 h [3]: 1640 nM | concentration at 4 h [3]: 2370 nM | concentration at 8 h [3]: 1360 nM | concentration at 24 h [3]: 512 nM | concentration at 48 h [3]: 147 nM | concentration at 2 h [4]: 5540 nM | concentration at 4 h [4]: 7670 nM | concentration at 8 h [4]: 4410 nM | concentration at 24 h [4]: 1110 nM | concentration at 48 h [4]: 276 nM | concentration at 2 h [5]: 12300 nM | concentration at 8 h [5]: 6560 nM | concentration at 24 h [5]: 2500 nM | Kp (BALB/c nude, 3 mg/kg, Capan-2 (3 mg/kg), single dose): 3.3 | Kp (BALB/c nude, 10 mg/kg, Capan-2 (10 mg/kg), single dose): 4.6 | Kp (BALB/c nude, 25 mg/kg, Capan-2 (25 mg/kg), single dose): 5.8 | concentration at 2 h [6]: 15.2 nM | concentration at 8 h [6]: 14.8 nM | concentration at 24 h [6]: 5.5 nM | concentration at 2 h [7]: 314 nM | concentration at 8 h [7]: 136 nM | concentration at 24 h [7]: 67 nM | concentration at 48 h [7]: 22 nM | concentration at 2 h [8]: 148 nM | concentration at 4 h [8]: 290 nM | concentration at 8 h [8]: 231 nM | concentration at 24 h [8]: 109 nM | concentration at 48 h [8]: 48.6 nM | concentration at 8 h (BALB/c nude, tumor, 3 mg/kg, sheet colon, Capan-2, Capan-2 #3_PHA 2023, 3 mg/kg): 567 nM | concentration at 2 h [9]: 671 nM | concentration at 8 h [9]: 829 nM | concentration at 24 h [9]: 406 nM | concentration at 48 h [9]: 101 nM | concentration at 2 h [10]: 630 nM | concentration at 4 h [10]: 1230 nM | concentration at 8 h [10]: 1120 nM | concentration at 24 h [10]: 563 nM | concentration at 48 h [10]: 142 nM | concentration at 4 h [11]: 3110 nM | concentration at 8 h [11]: 1860 nM | concentration at 24 h [11]: 40.6 nM | concentration at 2 h [12]: 2200 nM | concentration at 8 h [12]: 2400 nM | concentration at 24 h [12]: 1250 nM | concentration at 2 h [13]: 2210 nM | concentration at 4 h [13]: 3050 nM | concentration at 8 h [13]: 2290 nM | concentration at 24 h [13]: 1130 nM | concentration at 4 h [14]: 6440 nM | concentration at 8 h [14]: 3260 nM | concentration at 2 h [15]: 3660 nM | concentration at 8 h [15]: 3360 nM | concentration at 24 h [15]: 1740 nM | concentration at 2 h [16]: 4650 nM | concentration at 4 h [16]: 5600 nM | concentration at 8 h [16]: 5310 nM | concentration at 24 h [16]: 2520 nM | concentration at 2 h [17]: 21800 nM | concentration at 4 h [17]: 10600 nM | concentration at 2 h [18]: 10400 nM | concentration at 4 h [18]: 17300 nM | concentration at 8 h [18]: 7500 nM | concentration at 24 h [18]: 4270 nM | concentration at 48 h [18]: 1150 nM | concentration at 2 h [19]: 25300 nM | concentration at 4 h [19]: 30100 nM | half-life (BALB/c nude, tumor, po, 3 mg/kg, Capan-2 (3 mg/kg), single dose, read-out: Tumor t1/2 (converted)): 16.6 h | half-life (BALB/c nude, tumor, po, 10 mg/kg, Capan-2 (10 mg/kg), single dose, read-out: Tumor t1/2 (converted)): 15.7 h | half-life (BALB/c nude, tumor, po, 25 mg/kg, Capan-2 (25 mg/kg), single dose, read-out: Tumor t1/2 (converted)): 14 h | Cmax [20]: 252 ng/mL | AUC(0-t) [20]: 1560 ng·h/mL | Cmax [21]: 950 ng/mL | AUC(0-t) [21]: 5090 ng·h/mL | half-life (BALB/c nude, whole blood, po, 10 mg/kg, Capan-2 (10 mg/kg), single dose, read-out: Blood t1/2 (converted)): 3.77 h | Cmax [22]: 2920 ng/mL | AUC(0-t) [22]: 11600 ng·h/mL | half-life (BALB/c nude, whole blood, po, 25 mg/kg, Capan-2 (25 mg/kg), single dose, read-out: Blood t1/2 (converted)): 2.77 h | half-life (Balb/c nude, tumor (intracranial), po, 25 mg/kg, LU99-luc IC (25 mg/kg), intracranial tumor, read-out: Tumor t1/2 (converted)): 16.1 h | half-life (Balb/c nude, tumor (subcutaneous xenograft), sc, 25 mg/kg, LU99-luc SC (25 mg/kg), subcutaneous xenograft tumor, read-out: Tumor t1/2 (converted)): 25.3 h | Cmax [23]: 2020 ng/mL | AUC(0-t) [23]: 14000 ng·h/mL | Cmax (Balb/c nude, whole blood, po, 25 mg/kg, LU99-luc IC (25 mg/kg), single dose): 2500 ng/mL
